Test results reported in article PMC5218480 (PLoS ONE, 2017).

System: MV-4-11 cells
Experiment: Gene expression microarray analysis (Affymetrix PrimeView) and GSEA
Type: cell-based, human
Parameters: RFU PODN (11730768_x_at) / Fold change /veh PODN (11730768_x_at) / RFU LINC00158 (11744669_a_at) / Fold change /veh LINC00158 (11744669_a_at) / RFU DUSP10 (11751237_a_at) / Fold change /veh DUSP10 (11751237_a_at) / RFU ID3 (11757404_x_at) / Fold change /veh ID3 (11757404_x_at) / RFU PLEKHG5 (11737974_s_at) / Fold change /veh PLEKHG5 (11737974_s_at) / RFU LRRC4B (11730491_at) / Fold change /veh LRRC4B (11730491_at) / RFU GIMAP4 (11747438_a_at) / Fold change /veh GIMAP4 (11747438_a_at) / RFU KRT8 (11758183_x_at) / Fold change /veh KRT8 (11758183_x_at) / RFU CNN1 (11734310_a_at) / Fold change /veh CNN1 (11734310_a_at) / RFU VPS37D (11726825_at) / Fold change /veh VPS37D (11726825_at) / RFU C10orf10 (11716522_x_at) / Fold change /veh C10orf10 (11716522_x_at) / RFU KIR2DL2 /// KIR2DL4 /// KIR2DL5A /// KIR2DL5B /// KIR2DS1 /// KIR2DS2 /// KIR2DS3 /// KIR2DS4 /// KIR3DL3 /// KIR3DL3 /// KIR3DS1 (11738374_at) / Fold change /veh KIR2DL2 /// KIR2DL4 /// KIR2DL5A /// KIR2DL5B /// KIR2DS1 /// KIR2DS2 /// KIR2DS3 /// KIR2DS4 /// KIR3DL3 /// KIR3DL3 /// KIR3DS1 (11738374_at) / RFU C1QL1 (11718748_at) / Fold change /veh C1QL1 (11718748_at) / RFU TMPRSS4 (11747572_a_at) / Fold change /veh TMPRSS4 (11747572_a_at) / RFU HAMP (11756126_x_at) / Fold change /veh HAMP (11756126_x_at) / RFU RNFT2 (11725882_a_at) / Fold change /veh RNFT2 (11725882_a_at) / RFU NR4A2 (11747474_a_at) / Fold change /veh NR4A2 (11747474_a_at) / RFU ABCC12 (11746883_a_at) / Fold change /veh ABCC12 (11746883_a_at) / RFU TMEM136 (11760407_x_at) / Fold change /veh TMEM136 (11760407_x_at) / RFU CLDN22 /// WWC2 (11732394_at) / Fold change /veh CLDN22 /// WWC2 (11732394_at) / RFU HLA-DPB1 (11760878_x_at) / Fold change /veh HLA-DPB1 (11760878_x_at) / RFU SPINT1 (11716480_a_at) / Fold change /veh SPINT1 (11716480_a_at) / RFU GAP43 (11754022_s_at) / Fold change /veh GAP43 (11754022_s_at) / RFU A4GNT (11735810_at) / Fold change /veh A4GNT (11735810_at) / RFU PRB3 (11715151_x_at) / Fold change /veh PRB3 (11715151_x_at) / RFU TUBB4B (11761932_at) / Fold change /veh TUBB4B (11761932_at) / RFU CAPN14 (11732068_a_at) / Fold change /veh CAPN14 (11732068_a_at) / RFU TMCC2 (11721928_a_at) / Fold change /veh TMCC2 (11721928_a_at) / RFU IRGQ (11745062_a_at) / Fold change /veh IRGQ (11745062_a_at) / RFU FAM174B (11720279_a_at) / Fold change /veh FAM174B (11720279_a_at) / RFU TMPRSS4 (11748680_a_at) / Fold change /veh TMPRSS4 (11748680_a_at) / RFU FAM212B (11763350_a_at) / Fold change /veh FAM212B (11763350_a_at) / RFU PLEKHG5 (11743358_a_at) / Fold change /veh PLEKHG5 (11743358_a_at) / RFU ZSCAN30 (11745921_a_at) / Fold change /veh ZSCAN30 (11745921_a_at) / RFU CMKLR1 (11741424_a_at) / Fold change /veh CMKLR1 (11741424_a_at) / RFU LOC101060620 /// MAPK8IP1 (11723275_at) / Fold change /veh LOC101060620 /// MAPK8IP1 (11723275_at) / RFU SPTSSB (11747773_x_at) / Fold change /veh SPTSSB (11747773_x_at) / RFU PRSS12 (11739890_at) / Fold change /veh PRSS12 (11739890_at) / RFU BIN1 (11741810_x_at) / Fold change /veh BIN1 (11741810_x_at) / RFU WNT11 (11732464_a_at) / Fold change /veh WNT11 (11732464_a_at) / RFU C10orf10 (11716521_a_at) / Fold change /veh C10orf10 (11716521_a_at) / RFU C5orf56 (11738089_at) / Fold change /veh C5orf56 (11738089_at) / RFU CYB561 (11721691_x_at) / Fold change /veh CYB561 (11721691_x_at) / RFU ANKRD19P (11752326_a_at) / Fold change /veh ANKRD19P (11752326_a_at) / RFU OR2T12 /// OR2T33 /// OR2T8 (11738714_s_at) / Fold change /veh OR2T12 /// OR2T33 /// OR2T8 (11738714_s_at) / RFU VCAN (11748164_a_at) / Fold change /veh VCAN (11748164_a_at) / RFU JSRP1 (11732532_at) / Fold change /veh JSRP1 (11732532_at) / RFU KRTAP10-11 (11738290_x_at) / Fold change /veh KRTAP10-11 (11738290_x_at) / RFU MYO3A (11730013_a_at) / Fold change /veh MYO3A (11730013_a_at) / RFU EBF3 (11725865_a_at) / Fold change /veh EBF3 (11725865_a_at) / RFU CAMK2N1 (11719241_x_at) / Fold change /veh CAMK2N1 (11719241_x_at) / RFU C5orf56 (11738088_a_at) / Fold change /veh C5orf56 (11738088_a_at) / RFU OLFML3 (11715873_a_at) / Fold change /veh OLFML3 (11715873_a_at) / RFU LOC100653217 /// NTM (11731650_a_at) / Fold change /veh LOC100653217 /// NTM (11731650_a_at) / RFU MAPK11 (11762145_a_at) / Fold change /veh MAPK11 (11762145_a_at) / RFU FIZ1 (11724087_x_at) / Fold change /veh FIZ1 (11724087_x_at) / RFU OASL (11726364_x_at) / Fold change /veh OASL (11726364_x_at) / RFU SOX15 (11748057_x_at) / Fold change /veh SOX15 (11748057_x_at) / RFU CD79A (11719716_a_at) / Fold change /veh CD79A (11719716_a_at) / RFU HIST1H1D (11736915_at) / Fold change /veh HIST1H1D (11736915_at) / RFU CASKIN2 (11723855_a_at) / Fold change /veh CASKIN2 (11723855_a_at) / RFU LOC730098 (11760151_x_at) / Fold change /veh LOC730098 (11760151_x_at) / RFU OR4N2 (11742367_at) / Fold change /veh OR4N2 (11742367_at) / RFU PRRT2 (11749266_a_at) / Fold change /veh PRRT2 (11749266_a_at) / RFU SNX32 (11753110_a_at) / Fold change /veh SNX32 (11753110_a_at) / RFU CDHR5 (11726645_a_at) / Fold change /veh CDHR5 (11726645_a_at) / RFU RCAN1 (11760418_a_at) / Fold change /veh RCAN1 (11760418_a_at) / RFU FAM167A (11723789_a_at) / Fold change /veh FAM167A (11723789_a_at) / RFU FAM26E (11764081_at) / Fold change /veh FAM26E (11764081_at) / RFU ISYNA1 (11749810_s_at) / Fold change /veh ISYNA1 (11749810_s_at) / RFU ACY1 (11761880_at) / Fold change /veh ACY1 (11761880_at) / RFU 11764098_at / Fold change /veh 11764098_at / RFU SAMD14 (11745864_x_at) / Fold change /veh SAMD14 (11745864_x_at) / RFU NPB (11741838_a_at) / Fold change /veh NPB (11741838_a_at) / RFU TMPRSS6 (11731388_a_at) / Fold change /veh TMPRSS6 (11731388_a_at) / RFU KRTAP10-2 (11738614_at) / Fold change /veh KRTAP10-2 (11738614_at) / RFU ARHGAP8 /// PRR5-ARHGAP8 (11727945_x_at) / Fold change /veh ARHGAP8 /// PRR5-ARHGAP8 (11727945_x_at) / RFU KRTAP5-7 /// NADSYN1 (11734609_at) / Fold change /veh KRTAP5-7 /// NADSYN1 (11734609_at) / RFU RASL12 (11751679_a_at) / Fold change /veh RASL12 (11751679_a_at) / RFU CDKN2B (11736163_a_at) / Fold change /veh CDKN2B (11736163_a_at) / RFU PRF1 (11729649_at) / Fold change /veh PRF1 (11729649_at) / RFU, ZNF638 /// ZNF638-IT1 / Fold change vs veh, ZNF638 /// ZNF638-IT1 / RFU, PANK3 / Fold change vs veh, PANK3 / RFU, SH3YL1 / Fold change vs veh, SH3YL1 / RFU, ZEB2 / Fold change vs veh, ZEB2 / RFU, NRIP1 / Fold change vs veh, NRIP1 / RFU, PTTG1IP / Fold change vs veh, PTTG1IP / RFU, CAPN2 / Fold change vs veh, CAPN2 / RFU, MED14 / Fold change vs veh, MED14 / RFU, SNORA58 / Fold change vs veh, SNORA58 / RFU, C1orf63 / Fold change vs veh, C1orf63 / RFU, LRRFIP1 / Fold change vs veh, LRRFIP1 / RFU, NDUFAF7 / Fold change vs veh, NDUFAF7 / RFU, SLC12A2 / Fold change vs veh, SLC12A2 / RFU, IBTK / Fold change vs veh, IBTK / RFU, ESF1 / Fold change vs veh, ESF1 / Fold change vs veh, TMEM50B / RFU, TAOK1 / Fold change vs veh, TAOK1 / RFU, ACBD3 / Fold change vs veh, ACBD3 / RFU, TMA16 / Fold change vs veh, TMA16 / RFU, RWDD3 / Fold change vs veh, RWDD3 / RFU, BCAT1 / Fold change vs veh, BCAT1 / RFU, EDEM3 / Fold change vs veh, EDEM3 / RFU, TMEM33 / Fold change vs veh, TMEM33 / RFU, WDR75 / Fold change vs veh, WDR75 / RFU, AHCTF1 / Fold change vs veh, AHCTF1 / RFU, TFRC / Fold change vs veh, TFRC / RFU, ZDHHC17 / Fold change vs veh, ZDHHC17 / RFU, NOM1 / Fold change vs veh, NOM1 / RFU, ARL8B / Fold change vs veh, ARL8B / RFU, ZBTB11 / Fold change vs veh, ZBTB11 / RFU, TAMM41 / Fold change vs veh, TAMM41 / RFU, KIAA1704 /// LOC100996395 / Fold change vs veh, KIAA1704 /// LOC100996395 / RFU, ING1 / Fold change vs veh, ING1 / RFU, TRMT61B / Fold change vs veh, TRMT61B / RFU, FUBP3 / Fold change vs veh, FUBP3 / RFU, TP53 / Fold change vs veh, TP53 / RFU, TNKS2 / Fold change vs veh, TNKS2 / RFU, ZFP14 / Fold change vs veh, ZFP14 / RFU, ACTR2 / Fold change vs veh, ACTR2 / RFU, PPP3R1 / Fold change vs veh, PPP3R1 / RFU, PIK3R1 / Fold change vs veh, PIK3R1 / RFU, HNRNPA1 / Fold change vs veh, HNRNPA1 / RFU, RNF170 / Fold change vs veh, RNF170 / RFU, ZNF28 / Fold change vs veh, ZNF28 / RFU, RNGTT / Fold change vs veh, RNGTT / RFU, OGT / Fold change vs veh, OGT / RFU, BRD1 / Fold change vs veh, BRD1 / RFU, MARS / Fold change vs veh, MARS / RFU, ZNF655 / Fold change vs veh, ZNF655 / RFU, FAHD1 / Fold change vs veh, FAHD1 / RFU, BDP1 / Fold change vs veh, BDP1 / RFU, LRRCC1 / Fold change vs veh, LRRCC1 / RFU, ARID1A / Fold change vs veh, ARID1A / RFU, ZNF146 / Fold change vs veh, ZNF146 / RFU, ZNF330 / Fold change vs veh, ZNF330 / RFU, GPN3 / Fold change vs veh, GPN3 / RFU, C9orf123 / Fold change vs veh, C9orf123 / RFU, N4BP2L2 / Fold change vs veh, N4BP2L2 / RFU, ARFIP1 / Fold change vs veh, ARFIP1 / RFU, FAM179B / Fold change vs veh, FAM179B / RFU, BCL10 / Fold change vs veh, BCL10 / RFU, UHRF1BP1L / Fold change vs veh, UHRF1BP1L / RFU, BET1 / Fold change vs veh, BET1 / RFU, CNOT2 / Fold change vs veh, CNOT2 / RFU, ZNF268 / Fold change vs veh, ZNF268 / Fold change vs veh, ZNF507 / RFU, DGCR2 / Fold change vs veh, DGCR2 / RFU, WDSUB1 / Fold change vs veh, WDSUB1 / Fold change vs veh, HSP90B1 /// MIR3652 / RFU, ADSS / Fold change vs veh, ADSS / RFU, GK / Fold change vs veh, GK / RFU, ZNF148 / Fold change vs veh, ZNF148 / RFU, TAF9 / Fold change vs veh, TAF9 / RFU, SLC1A5 / Fold change vs veh, SLC1A5 / RFU, SLMO2 / Fold change vs veh, SLMO2 / RFU, ABCC4 / Fold change vs veh, ABCC4 / RFU, LOC101060439 /// RAP1B / Fold change vs veh, LOC101060439 /// RAP1B / RFU, RFX7 / Fold change vs veh, RFX7 / RFU, GTPBP10 / Fold change vs veh, GTPBP10 / RFU, CNEP1R1 / Fold change vs veh, CNEP1R1 / RFU, BIVM-ERCC5 /// ERCC5 / Fold change vs veh, BIVM-ERCC5 /// ERCC5 / RFU, ILF3 / Fold change vs veh, ILF3 / RFU 11762660_at / Fold change /veh 11762660_at / RFU VCAN (11757783_s_at) / Fold change /veh VCAN (11757783_s_at) / RFU DDX43 (11728927_at) / Fold change /veh DDX43 (11728927_at) / RFU KRT8 (11758188_x_at) / Fold change /veh KRT8 (11758188_x_at) / RFU NKD1 (11759106_at) / Fold change /veh NKD1 (11759106_at) / RFU SRD5A1 (11742802_a_at) / Fold change /veh SRD5A1 (11742802_a_at) / RFU TPSAB1 /// TPSB2 (11721975_s_at) / Fold change /veh TPSAB1 /// TPSB2 (11721975_s_at) / RFU GSTM3 (11746129_a_at) / Fold change /veh GSTM3 (11746129_a_at) / RFU IL23R (11737362_x_at) / Fold change /veh IL23R (11737362_x_at) / RFU TMEM51 (11727254_a_at) / Fold change /veh TMEM51 (11727254_a_at) / RFU PIWIL2 (11732686_x_at) / Fold change /veh PIWIL2 (11732686_x_at) / RFU ORM1 (11744905_x_at) / Fold change /veh ORM1 (11744905_x_at) / RFU CCDC152 (11743942_at) / Fold change /veh CCDC152 (11743942_at) / RFU ECM1 (11717891_a_at) / Fold change /veh ECM1 (11717891_a_at) / RFU IL23R (11748794_a_at) / Fold change /veh IL23R (11748794_a_at) / RFU TNFAIP8L3 (11732012_x_at) / Fold change /veh TNFAIP8L3 (11732012_x_at) / RFU MBOAT4 (11741988_at) / Fold change /veh MBOAT4 (11741988_at) / RFU 11764193_at / Fold change /veh 11764193_at / RFU TMEM53 (11763286_at) / Fold change /veh TMEM53 (11763286_at) / RFU MAGEB2 (11727129_at) / Fold change /veh MAGEB2 (11727129_at) / RFU TMEM200A (11744735_a_at) / Fold change /veh TMEM200A (11744735_a_at) / RFU CCDC152 (11751479_a_at) / Fold change /veh CCDC152 (11751479_a_at) / RFU FAM211A (11726209_a_at) / Fold change /veh FAM211A (11726209_a_at) / RFU RGS16 (11746705_a_at) / Fold change /veh RGS16 (11746705_a_at) / RFU VCAN (11755009_s_at) / Fold change /veh VCAN (11755009_s_at) / RFU RHOB (11743442_s_at) / Fold change /veh RHOB (11743442_s_at) / RFU RGS16 (11720943_a_at) / Fold change /veh RGS16 (11720943_a_at) / RFU RGS16 (11720944_at) / Fold change /veh RGS16 (11720944_at) / RFU, VPS4B / Fold change vs veh, VPS4B / RFU, CREB1 / Fold change vs veh, CREB1 / RFU, DNAJC13 / Fold change vs veh, DNAJC13 / RFU, GNAQ / Fold change vs veh, GNAQ / RFU, CDK5R1 / Fold change vs veh, CDK5R1 / RFU, ZRANB3 / Fold change vs veh, ZRANB3 / RFU, CUL4A / Fold change vs veh, CUL4A / RFU, CCNY / Fold change vs veh, CCNY / RFU, UFL1 / Fold change vs veh, UFL1 / RFU, COG3 / Fold change vs veh, COG3 / RFU, DIAPH2 / Fold change vs veh, DIAPH2 / RFU, SKA2 / Fold change vs veh, SKA2 / RFU, AFF3 / Fold change vs veh, AFF3 / RFU, LMF1 / Fold change vs veh, LMF1 / RFU, IPO11 / Fold change vs veh, IPO11 / RFU, DFFB / Fold change vs veh, DFFB / RFU, FOXP1 / Fold change vs veh, FOXP1 / RFU, CARD8 / Fold change vs veh, CARD8 / RFU, STRN3 / Fold change vs veh, STRN3 / RFU, ADK / Fold change vs veh, ADK / RFU, RASSF2 / Fold change vs veh, RASSF2 / RFU, WIPF1 / Fold change vs veh, WIPF1 / RFU, LARP1B / Fold change vs veh, LARP1B / RFU, RASA1 / Fold change vs veh, RASA1 / RFU, RB1 / Fold change vs veh, RB1 / RFU, PPFIA1 / Fold change vs veh, PPFIA1 / RFU, MAT2A / Fold change vs veh, MAT2A / RFU, CCT5 / Fold change vs veh, CCT5 / RFU, WDR92 / Fold change vs veh, WDR92 / RFU, CUX1 / Fold change vs veh, CUX1 / RFU, TTC7A / Fold change vs veh, TTC7A / RFU, TMEM135 / Fold change vs veh, TMEM135 / RFU, DEPTOR / Fold change vs veh, DEPTOR / RFU, CPM / Fold change vs veh, CPM / RFU, DNAJB6 / Fold change vs veh, DNAJB6 / RFU, CACNA2D3 / Fold change vs veh, CACNA2D3 / RFU, DTX4 / Fold change vs veh, DTX4 / RFU, TFCP2 / Fold change vs veh, TFCP2 / RFU, GMCL1 /// GMCL1P1 / Fold change vs veh, GMCL1 /// GMCL1P1 / RFU, AEBP2 / Fold change vs veh, AEBP2 / RFU, SNHG1 /// SNORD22 /// SNORD25 /// SNORD26 /// SNORD27 /// SNORD28 /// SNORD29 /// SNORD31 / Fold change vs veh, SNHG1 /// SNORD22 /// SNORD25 /// SNORD26 /// SNORD27 /// SNORD28 /// SNORD29 /// SNORD31 / Fold change (Aza/veh), C12orf56 (ProbeSet 11735607_a_at) / Fold change (ACY-1035/veh), C12orf56 (ProbeSet 11735607_a_at) / Fold change (Aza/veh), FGFR1OP (ProbeSet 11751329_s_at) / Fold change (ACY-1035/veh), FGFR1OP (ProbeSet 11751329_s_at) / Fold change (Aza/veh), VPS36 (ProbeSet 11739960_a_at) / Fold change (ACY-1035/veh), VPS36 (ProbeSet 11739960_a_at) / RFU SYPL1 (11715823_x_at) / Fold change /veh SYPL1 (11715823_x_at) / RFU IGFBP7 (11715501_s_at) / Fold change /veh IGFBP7 (11715501_s_at) / RFU REEP3 (11722064_at) / Fold change /veh REEP3 (11722064_at) / RFU IGLL1 (11728026_x_at) / Fold change /veh IGLL1 (11728026_x_at): dose or concentration left out as unconfirmed
Conditions: ProbeSet 11764057_s_at; LIST B

Structure (SMILES): Nc1ccc(-c2cccs2)cc1NC(=O)c1ccc2c(c1)cc(C1CC1)n2CCN1CCOCC1 [ACY-1035]
- RFU, C1orf63: 108.16 RFU
